In brackets after ≈: the same amount, converted by molar mass.
Legend:
Format in all cases: functional
[1] = system: Escherichia coli; test: Antibacterial activity against Escherichia coli ATCC 25922 assessed as zone of inhibition incubated for 24 hrs by paper disk method
[2] = system: Pseudomonas aeruginosa; test: Antibacterial activity against Pseudomonas aeruginosa ATCC 27853 assessed as zone of inhibition incubated for 24 hrs by paper disk method
[3] = system: Staphylococcus aureus; test: Antibacterial activity against Staphylococcus aureus assessed as inhibition of bacterial growth by broth dilution assay
[4] = system: Bacillus subtilis; test: Antibacterial activity against Bacillus subtilis assessed as inhibition of bacterial growth by broth dilution assay
[5] = system: Enterococcus faecalis; test: Antibacterial activity against Enterococcus faecalis PCM 2673 assessed as inhibition of bacterial growth incubated for 24 hrs by microbroth dilution assay
[6] = system: Escherichia coli; test: Antibacterial activity against Escherichia coli ATCC 8739 assessed as inhibition of bacterial growth incubated for 24 hrs by microbroth dilution assay
[7] = system: Escherichia coli; test: Antibacterial activity against Escherichia coli assessed as zone of inhibition incubated for 3 days by cup plate agar diffusion assay; settings: time 3 day
[8] = system: Pseudomonas aeruginosa; test: Antibacterial activity against Pseudomonas aeruginosa assessed as zone of inhibition incubated for 3 days by cup plate agar diffusion assay; settings: time 3 day
[9] = system: Bacillus subtilis; test: Antibacterial activity against Bacillus subtilis assessed as zone of inhibition incubated for 3 days by cup plate agar diffusion assay; settings: time 3 day
[10] = system: Staphylococcus aureus; test: Antibacterial activity against Staphylococcus aureus assessed as zone of inhibition incubated for 3 days by cup plate agar diffusion assay; settings: time 3 day
[11] = system: Pseudomonas; test: Antibacterial activity against Pseudomonas assessed as zone of inhibition
[12] = system: Staphylococcus aureus; test: Antibacterial activity against Staphylococcus aureus assessed as inhibition of bacterial growth by broth micro dilution assay
[13] = system: Bacillus; test: Antibacterial activity against Bacillus assessed as inhibition of bacterial growth by broth micro dilution assay
[14] = system: Escherichia coli; test: Antibacterial activity against Escherichia coli assessed as inhibition of bacterial growth by broth micro dilution assay
[15] = system: Escherichia coli; test: Antibacterial activity against Escherichia coli 1411 assessed as inhibition of bacterial growth incubated for 24 hrs by two-fold serial dilution method
[16] = system: Escherichia coli; test: Antibacterial activity against Escherichia coli SM1411 assessed as inhibition of bacterial growth incubated for 24 hrs by two-fold serial dilution method
[17] = system: Staphylococcus aureus; test: Antibacterial activity against Staphylococcus aureus MTCC 96 assessed as inhibition of bacterial growth incubated for 18 to 20 hrs by broth microdilution assay; settings: time 18-20 hrs
[18] = system: Escherichia coli; test: Antibacterial activity against Escherichia coli MTCC 443 assessed as inhibition of bacterial growth incubated for 18 to 20 hrs by broth microdilution assay; settings: time 18-20 hrs
[19] = system: Pseudomonas fluorescens; test: Antibacterial activity against Pseudomonas fluorescens NCIM 2173 assessed as inhibition of bacterial growth incubated for 24 hrs by serial twofold dilution assay
[20] = system: Sphingomonas paucimobilis; test: Antibacterial activity against Flavobacterium devorans ATCC 10829 assessed as inhibition of bacterial growth incubated for 24 hrs by serial twofold dilution assay
[21] = system: Escherichia coli; test: Antibacterial activity against Escherichia coli NCIM 2256 assessed as inhibition of bacterial growth incubated for 24 hrs by serial twofold dilution assay

C[C@@H](NC(=O)COc1cc(=O)oc2ccccc12)c1ccccc1
inhibition zone (IZ) [1]: 12 mm
inhibition zone (IZ) [2]: 10 mm

O=c1oc2ccc(Br)cc2cc1-c1cc2c(ccc3ccccc32)o1
MIC [3]: 0.2 µg/mL (≈ 0.511 µM)
MIC [4]: 6.25 µg/mL (≈ 16 µM)

COc1ccc(-n2cc(COc3cc(=O)oc4ccccc34)nn2)cc1F
MIC [5]: 100 µg/mL (≈ 272 µM)
MIC [6]: 200 µg/mL (≈ 544 µM)

CC1(C)S[C@@H]2[C@H](NC(=O)[C@H](N)c3ccc(O)cc3)C(=O)N2[C@H]1C(=O)O [AMOXICILLIN]
inhibition zone (IZ) [7]: 30 mm
inhibition zone (IZ) [8]: 10 mm
inhibition zone (IZ) [9]: 12 mm
inhibition zone (IZ) [10]: 30 mm

COc1ccc2oc(=O)cc(-c3nc4ccccc4[nH]3)c2c1
inhibition zone (IZ) [11]: 4 mm

COc1ccc2oc(=O)cc(C3NNC(=O)N3)c2c1 (stereo not drawn)
MIC [12]: 0.8 µg/mL (≈ 3.06 µM)
MIC [13]: 0.8 µg/mL (≈ 3.06 µM)
MIC [14]: 0.8 µg/mL (≈ 3.06 µM)

O=C(COc1cc(=O)oc2ccccc12)N(c1ccccc1)c1ccccc1
inhibition zone (IZ) [1]: 10 mm
inhibition zone (IZ) [2]: 12 mm

C[C@@H](NC(=O)COc1cc(=O)oc2ccccc12)c1cccc2ccccc12
inhibition zone (IZ) [1]: 12 mm
inhibition zone (IZ) [2]: 14 mm

Cc1cc(=O)oc2c(C(=O)/C=C/c3ccc(Cl)cc3)c(OCc3cnnn3Cc3ccccc3)ccc12
inhibition zone (IZ) [7]: 23 mm
inhibition zone (IZ) [8]: 8 mm
inhibition zone (IZ) [9]: 10 mm
inhibition zone (IZ) [10]: 25 mm

O=c1cc(OCc2cn(-c3cccc([N+](=O)[O-])c3)nn2)c2ccccc2o1
MIC [5]: 400 µg/mL (≈ 1100 µM)
MIC [6]: 1600 µg/mL (≈ 4390 µM)

Cc1ccc(/C=C/C(=O)c2c(OCc3cnnn3Cc3ccccc3)ccc3c(C)cc(=O)oc23)cc1
inhibition zone (IZ) [7]: 14 mm
inhibition zone (IZ) [8]: 7 mm
inhibition zone (IZ) [9]: 6 mm
inhibition zone (IZ) [10]: 17 mm

Cc1ccc2cc(-c3cc4cc(Br)ccc4oc3=O)oc2c1
MIC [3]: 3.12 µg/mL (≈ 8.78 µM)
MIC [4]: 0.2 µg/mL (≈ 0.563 µM)

O=c1cc(-c2nc3ccccc3[nH]2)c2cc(Br)ccc2o1
inhibition zone (IZ) [11]: 4.8 mm

COc1ccc(/C=C/C(=O)c2c(OCc3cnnn3Cc3ccccc3)ccc3c(C)cc(=O)oc23)cc1
inhibition zone (IZ) [7]: 28 mm
inhibition zone (IZ) [8]: 9 mm
inhibition zone (IZ) [9]: 11 mm
inhibition zone (IZ) [10]: 28 mm

Cc1ccc2oc(=O)cc(C3NNC(=O)N3)c2c1 (stereo not drawn)
MIC [12]: 1.6 µg/mL (≈ 6.52 µM)
MIC [13]: 0.8 µg/mL (≈ 3.26 µM)
MIC [14]: 0.8 µg/mL (≈ 3.26 µM)

COc1ccc(/C=C/C(=O)c2c(OCc3cnnn3Cc3ccccc3)ccc3c(C)cc(=O)oc23)cc1OC
inhibition zone (IZ) [7]: 31 mm
inhibition zone (IZ) [8]: 11 mm
inhibition zone (IZ) [9]: 13 mm
inhibition zone (IZ) [10]: 32 mm

Cc1cc(=O)oc2c(C(=O)/C=C/c3ccc(F)cc3)c(OCc3cnnn3Cc3ccccc3)ccc12
inhibition zone (IZ) [7]: 27 mm
inhibition zone (IZ) [8]: 10 mm
inhibition zone (IZ) [9]: 11 mm
inhibition zone (IZ) [10]: 27 mm

Cc1ccc2oc(=O)cc(-c3nc4ccccc4[nH]3)c2c1
inhibition zone (IZ) [11]: 4.1 mm

O=c1cc(-c2nc3ccccc3[nH]2)c2cc(Cl)ccc2o1
inhibition zone (IZ) [11]: 8 mm

O=c1oc2ccccc2cc1C1=NNC(c2ccc(F)cc2)C1 (stereo not drawn)
MIC [15]: > 70 µg/mL
MIC [16]: > 70 µg/mL

O=C1NNC(c2cc(=O)oc3ccc(Cl)cc23)N1 (stereo not drawn)
MIC [12]: 25 µg/mL (≈ 94.1 µM)
MIC [13]: 6.25 µg/mL (≈ 23.5 µM)
MIC [14]: 25 µg/mL (≈ 94.1 µM)

Cc1ccc(C2CC(c3cc4ccccc4oc3=O)=NN2)cc1 (stereo not drawn)
MIC [15]: 16 µg/mL (≈ 52.6 µM)
MIC [16]: 18 µg/mL (≈ 59.1 µM)

Cc1ccc2c(-c3nc4ccccc4[nH]3)cc(=O)oc2c1
inhibition zone (IZ) [11]: 4.1 mm

Cc1cc(=O)oc2cc(OC(=O)CNC3N=C(c4ccc(F)cc4)C=C(c4ccc(Cl)cc4)S3)c([N+](=O)[O-])cc12 (stereo not drawn)
MIC [17]: 250 µg/mL (≈ 431 µM)
MIC [18]: 50 µg/mL (≈ 86.2 µM)

Cc1cc(OCc2cn(Cc3ccc(Br)cc3)nn2)cc2oc(=O)ccc12
MIC [19]: 4 µg/mL (≈ 9.38 µM)
MIC [20]: 2 µg/mL (≈ 4.69 µM)
MIC [21]: 4 µg/mL (≈ 9.38 µM)

O=C(N[C@H](CO)[C@H](O)c1ccc([N+](=O)[O-])cc1)C(Cl)Cl [CHLORAMPHENICOL]
MIC [17]: 50 µg/mL (≈ 155 µM)
MIC [19]: 2 µg/mL (≈ 6.19 µM)
MIC [5]: 5 µg/mL (≈ 15.5 µM)
MIC [20]: 2 µg/mL (≈ 6.19 µM)
MIC [18]: 50 µg/mL (≈ 155 µM)
MIC [6]: 1.2 µg/mL (≈ 3.71 µM)
MIC [21]: 2 µg/mL (≈ 6.19 µM)
